From ChEMBL document CHEMBL1201862, “PubChem BioAssay data set” (2004)
The source made the active and inactive calls.

Tests used:
[1] = target: Epstein-Barr nuclear antigen 1 (Epstein-Barr virus (strain B95-8) (HHV-4) (Human herpesvirus 4), UniProt P03211); assay: inhibition of EBV nuclear antigen 1 DNA binding – biochemical, fluorescence polarization, 1536-well, dose response (AID 2381); design: species or system human gammaherpesvirus 4;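 further: fluorescence polarization of a Cy5 DNA probe bound by EBNA-1 protein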
[2] = target: Lytic switch protein BZLF1 (Epstein-Barr virus (strain B95-8) (HHV-4) (Human herpesvirus 4), UniProt P03206); assay: inhibition of BZLF1 ZTA DNA binding – biochemical, fluorescence polarization, Epstein-Barr virus, 1536-well, counter-screen for EBNA-1 inhibitor project, dose response (AID 2377); design: species or system human gammaherpesvirus 4;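 further: fluorescence polarization of Cy5-labelled ZRE DNA probe bound by purified Zta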
[3] = target: Voltage-gated inwardly rectifying potassium channel KCNH2 (Homo sapiens, UniProt Q12809); assay: concentration-dependent hERG rescue from blockers – cell-based, thallium flux, dose response (AID 2121); assay type: ADME
[4] = A Cell Based Secondary Assay To Explore Cytotoxicity of Compounds that Sensitize Mycobacterium Tuberculosis to Beta-Lactam Antibiotics.; assay type: functional
[5] = HPDE-C7 pancreatic duct cell viability loss – fluorescence, HTS (AID 430); assay type: functional, cell-based; details: Homo sapiens
[6] = viability loss of HPDE-C7K cells – cell-based, fluorescence, HTS, primary screen (AID 431); assay type: functional; details: Homo sapiens
[7] = target: NAD-dependent protein deacylase sirtuin-5, mitochondrial (Homo sapiens, UniProt Q9NXA8); assay: sirtuin-5 deacylation blockers, concentration series – biochemical, fluorescence imaging, cherry-pick, set 5, dose response (AID 720591);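 further: desuccinylation of succinyl peptide AMC substrate read as fluorescence after trypsin release; potency of inhibitors that lower fluorescence and may act on trypsin instead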
[8] = target: Paired box protein Pax-8 (Homo sapiens, UniProt Q06710); assay: PAX8 transcriptional activity inhibition in RMG-I – RMG-I cells, luciferase, cherry-pick, dose response (AID 687027); assay type: functional, cell-based;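 further: luciferase reporter driven by Pax8 target thyroperoxidase promoter measured by SteadyGlo luminescence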
[9] = inhibitors acting on PAX2 in cells – cell-based, plate reader, dry powder samples, selectivity assay for PAX8 inhibitor project, dose response (AID 743048); assay type: functional;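 further: HEK293 cells carrying a WT1 promoter luciferase reporter driven by expressed Pax2; potency is for inhibition of Pax2 driven reporter signal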
[10] = COV362 cell viability loss – plate reader, dry powder, SA12, cytotoxicity control for PAX8 inhibitor project, dose response (AID 743144); assay type: functional, cell-based
[11] = A2780 cell killing – plate reader, dry powder samples, cytotoxicity control, dose response (AID 743046); assay type: functional, cell-based
[12] = PAX5 cellular inhibition readout – cell-based, plate reader, dry powder samples, selectivity assay for PAX8 inhibitor project, dose response (AID 743047); assay type: functional;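 further: HEK293 cells carrying a Pax5 driven CD19 promoter luciferase reporter; potency of inhibitors that lower reporter luminescence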
[13] = OVCAR4 cell viability loss – plate reader, dry powder, SA11, cytotoxicity control for PAX8 inhibitor project, dose response (AID 743150); assay type: functional, cell-based; details: OVCAR-4
[14] = COV434 cell viability loss – plate reader, dry powder, SA7, cytotoxicity control for PAX8 inhibitor project, dose response (AID 743145); assay type: functional, cell-based
[15] = OVCAR8 cell viability loss – plate reader, dry powder samples, PAX8 project, dose response (AID 743197); assay type: functional, cell-based; details: OVCAR-8
[16] = PAX8-dependent cell viability loss – plate reader, dry powder, dose response (AID 743049); assay type: functional, cell-based
[17] = blockers of HIV-1 envelope-mediated cell-cell fusion – cherry-pick, dose response (AID 652057); assay type: functional, cell-based
[18] = viability loss in CEM21 cells – cell-based, CellTiter-Glo luminescence, cherry-picked, cytotoxicity control for viral fusion inhibitor project, dose response (AID 652042); assay type: functional;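 further: potency for signal decrease meaning cytotoxicity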
[19] = blockers of HIV-1 ZM109 envelope-driven cell-cell fusion – HeLa effector, CEM target cells, luciferase, cherry-pick, dose response (AID 652058); assay type: functional, cell-based;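 further: luciferase signal from HIV-1 Env mediated cell-cell fusion of effector and target cells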
[20] = HIV-1 AD8 envelope cell-cell fusion blockers – cherry-pick, dose response (AID 652062); assay type: functional, cell-based;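 further: luciferase signal from cell-cell fusion driven by HIV-1 clade B AD8 Env; potency is for inhibitors of fusion seen as a drop in luminescence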
[21] = toxicity toward immortalized ovarian surface epithelium – cell-based, plate reader, dry powder samples, cytotoxicity control for PAX8 inhibitor project, dose response (AID 743045); assay type: functional
[22] = OVCAR-3 cell viability loss – plate reader, dry powder samples, PAX8 inhibitor project, dose response (AID 743044); assay type: functional, cell-based
[23] = IGROV1 cell killing – plate reader, dry powder samples, PAX8 inhibitor project, dose response (AID 743043); assay type: functional, cell-based; details: IGROV-1
[24] = general cell-killing toxicity readout – plate reader, dry powder samples, cytotoxicity control for PAX8 inhibitor project, dose response (AID 743021); assay type: functional, cell-based
[25] = reduced cellular PGC1a acetyl-lysine signal – cell-based, cherry-picked samples, dose response (AID 720514); assay type: functional;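 further: potency may reflect raised or lowered acetylation signal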
[26] = growth inhibition of yeast DHODH-expressing 3D7 parasites – SYBR Green, dry powder samples, dose response (AID 1159570); assay type: functional, cell-based;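 further: parasite growth measured after 72 hours of compound exposure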
[27] = toxicity to human HepG2 hepatoma cells – cell-based, plate reader, dry powder samples, cytotoxicity control, dose response (AID 1159569); assay type: functional;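 further: inhibitor potency with signal falling toward the positive control level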
[28] = P. falciparum Dd2 growth inhibitors, dose response, SYBR Green, cherry-picked samples (AID 1159567); assay type: functional, cell-based
[29] = Dd2 malaria parasite growth inhibition potency – SYBR Green, dry powder samples, dose response (AID 1159566); assay type: functional, cell-based;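 further: potency for growth inhibition with lower SYBR green DNA signal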
[30] = growth inhibition of PfATP4-mutant resistant parasites – NITD609-resistant line, SYBR Green, dry powder, dose response (AID 1159571); assay type: functional, cell-based;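 further: parasites synchronized at ring stage by sorbitol before testing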
[31] = glucagon-like peptide-1 release potency in STC-1, concentration-response, half-maximal inhibitory concentration in the STC-1 line (AID 1117345); assay type: functional, cell-based
[32] = Potency on glucagon-like peptide 1 release, dose-response in NCI-H716 cell line, half maximal inhibitory concentration (AID 1117344); assay type: functional, cell-based
[33] = IC50 of insulin release inhibition, rat insulinoma INS-1E line, 5 mM glucose, cell-based (AID 1117331); assay type: functional

Sequence of Paired box protein Pax-8 (Q06710 whole entry): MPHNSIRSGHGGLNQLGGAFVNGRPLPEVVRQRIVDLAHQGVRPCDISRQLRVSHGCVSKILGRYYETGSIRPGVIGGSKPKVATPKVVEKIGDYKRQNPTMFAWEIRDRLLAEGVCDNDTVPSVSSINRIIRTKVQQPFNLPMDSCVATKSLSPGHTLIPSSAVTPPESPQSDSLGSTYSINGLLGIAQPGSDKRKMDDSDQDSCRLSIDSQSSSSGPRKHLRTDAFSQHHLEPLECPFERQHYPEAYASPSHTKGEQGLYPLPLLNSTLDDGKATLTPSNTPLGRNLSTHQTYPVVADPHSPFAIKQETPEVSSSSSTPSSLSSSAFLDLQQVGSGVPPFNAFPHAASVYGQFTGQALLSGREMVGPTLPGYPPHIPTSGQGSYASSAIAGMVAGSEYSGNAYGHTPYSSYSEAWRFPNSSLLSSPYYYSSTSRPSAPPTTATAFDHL
Sequence of Lytic switch protein BZLF1 (P03206 whole entry): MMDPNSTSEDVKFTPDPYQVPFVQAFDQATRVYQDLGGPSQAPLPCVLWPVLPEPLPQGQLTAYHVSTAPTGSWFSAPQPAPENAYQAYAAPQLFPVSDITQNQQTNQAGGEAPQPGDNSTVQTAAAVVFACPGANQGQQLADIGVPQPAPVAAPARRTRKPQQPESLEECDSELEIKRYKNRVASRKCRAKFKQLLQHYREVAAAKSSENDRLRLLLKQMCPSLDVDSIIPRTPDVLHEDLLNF
Sequence of Epstein-Barr nuclear antigen 1 (P03211 whole entry): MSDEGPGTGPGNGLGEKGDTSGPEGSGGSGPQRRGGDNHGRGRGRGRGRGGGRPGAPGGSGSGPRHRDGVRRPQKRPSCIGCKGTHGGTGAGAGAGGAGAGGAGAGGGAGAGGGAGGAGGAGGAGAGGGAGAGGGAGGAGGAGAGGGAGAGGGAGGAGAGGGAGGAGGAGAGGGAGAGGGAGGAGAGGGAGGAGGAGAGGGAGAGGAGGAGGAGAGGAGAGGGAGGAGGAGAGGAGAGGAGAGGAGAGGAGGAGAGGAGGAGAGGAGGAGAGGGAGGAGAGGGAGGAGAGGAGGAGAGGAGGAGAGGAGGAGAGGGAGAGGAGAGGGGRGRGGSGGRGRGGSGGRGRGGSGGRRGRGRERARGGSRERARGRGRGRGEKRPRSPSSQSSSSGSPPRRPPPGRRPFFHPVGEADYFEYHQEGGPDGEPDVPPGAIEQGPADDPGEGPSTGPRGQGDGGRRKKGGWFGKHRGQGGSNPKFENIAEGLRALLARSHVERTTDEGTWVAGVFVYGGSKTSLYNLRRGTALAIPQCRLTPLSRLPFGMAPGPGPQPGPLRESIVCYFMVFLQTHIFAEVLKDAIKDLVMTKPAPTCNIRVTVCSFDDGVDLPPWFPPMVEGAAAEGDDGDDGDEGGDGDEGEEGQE
Sequence of NAD-dependent protein deacylase sirtuin-5, mitochondrial (Q9NXA8 whole entry): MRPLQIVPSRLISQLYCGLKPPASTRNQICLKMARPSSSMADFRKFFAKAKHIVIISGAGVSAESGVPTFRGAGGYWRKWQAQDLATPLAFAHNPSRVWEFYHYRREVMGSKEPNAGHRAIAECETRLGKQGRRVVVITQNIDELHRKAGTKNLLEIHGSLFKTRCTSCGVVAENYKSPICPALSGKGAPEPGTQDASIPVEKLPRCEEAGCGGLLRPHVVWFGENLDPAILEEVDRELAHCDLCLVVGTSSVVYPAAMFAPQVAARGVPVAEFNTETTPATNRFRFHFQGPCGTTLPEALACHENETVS
Sequence of Voltage-gated inwardly rectifying potassium channel KCNH2 (Q12809 whole entry): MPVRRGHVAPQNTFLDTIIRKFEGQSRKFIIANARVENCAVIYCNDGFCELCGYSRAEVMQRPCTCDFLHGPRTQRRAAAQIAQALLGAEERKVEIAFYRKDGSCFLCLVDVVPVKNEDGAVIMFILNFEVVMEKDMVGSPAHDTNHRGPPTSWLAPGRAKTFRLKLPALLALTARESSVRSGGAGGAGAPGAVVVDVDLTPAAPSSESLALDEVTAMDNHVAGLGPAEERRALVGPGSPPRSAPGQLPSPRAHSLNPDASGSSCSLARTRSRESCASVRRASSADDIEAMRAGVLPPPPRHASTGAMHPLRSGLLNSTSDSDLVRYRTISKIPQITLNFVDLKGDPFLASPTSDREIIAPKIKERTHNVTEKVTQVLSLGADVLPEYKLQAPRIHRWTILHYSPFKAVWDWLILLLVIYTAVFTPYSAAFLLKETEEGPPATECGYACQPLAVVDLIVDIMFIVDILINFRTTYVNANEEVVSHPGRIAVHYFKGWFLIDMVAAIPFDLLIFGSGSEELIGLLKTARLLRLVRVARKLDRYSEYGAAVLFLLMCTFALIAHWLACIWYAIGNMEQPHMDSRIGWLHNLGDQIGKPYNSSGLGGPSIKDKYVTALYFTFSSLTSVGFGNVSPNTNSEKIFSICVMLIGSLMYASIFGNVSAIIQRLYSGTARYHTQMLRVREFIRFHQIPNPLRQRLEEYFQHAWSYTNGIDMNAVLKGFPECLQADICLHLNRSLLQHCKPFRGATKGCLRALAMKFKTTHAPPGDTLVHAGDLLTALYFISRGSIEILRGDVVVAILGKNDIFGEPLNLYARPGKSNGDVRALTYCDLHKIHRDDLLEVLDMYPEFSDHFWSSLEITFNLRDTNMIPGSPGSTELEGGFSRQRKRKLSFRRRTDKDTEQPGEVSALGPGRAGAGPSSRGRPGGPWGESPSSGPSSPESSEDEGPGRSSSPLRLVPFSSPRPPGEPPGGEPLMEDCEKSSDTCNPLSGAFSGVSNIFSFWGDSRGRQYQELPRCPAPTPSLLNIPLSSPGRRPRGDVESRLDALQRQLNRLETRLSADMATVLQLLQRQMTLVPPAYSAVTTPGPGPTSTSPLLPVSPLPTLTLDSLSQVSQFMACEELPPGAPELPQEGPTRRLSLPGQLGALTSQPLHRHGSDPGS

CCN(CC)S(=O)(=O)c1ccc(C(=O)Nc2nnc(N=C(S)Nc3ccccc3)s2)cc1
IC50 [1]: 6.46 µM (active) | IC50 [2]: > 111 µM (not active)

O=C(NCc1ccc2c(c1)OCO2)C1CCC(CNS(=O)(=O)c2ccc(Cl)cc2)CC1 (stereo not drawn)
IC50 [1]: > 148 µM (not active) | IC50 [2]: > 111 µM (not active)

Cc1ccc(C(=O)CC(=O)c2cccc(F)c2)c(O)c1
EC50 [3]: 3.76 µM (active)

CC(O)/C=C/c1ccc2ccccc2n1 (stereo not drawn)
CC50 [4]: 35.2 µM (active) | EC50 [5]: 17.8 µM (active) | EC50 [6]: > 20 µM (not active)

CCN(Cc1nc(-c2ccccc2)no1)C(=O)c1ccco1
AC50 [7]: > 30 µM (inactive)

N#C[C@@H]1[C@H](c2ccc(C#CC3CCCC3)cc2)[C@H](CO)N1C(=O)Nc1ccc(F)cc1
AC50 [8]: 10.5 µM (active) | AC50 [9]: 9.84 µM (active) | AC50 [10]: 62.6 µM (active) | AC50 [11]: 19.4 µM (active) | AC50 [12]: 9.89 µM (active) | AC50 [13]: 18.8 µM (active) | AC50 [14]: 46.9 µM (active) | AC50 [15]: > 70 µM (inactive) | AC50 [16]: 19.8 µM (active)

C[C@@H]1CN([C@@H](C)CO)C(=O)Cc2cc(NS(=O)(=O)c3ccccc3)ccc2O[C@H]1CN(C)Cc1ccc(Cl)c(Cl)c1
AC50 [17]: 8.55 µM (active) | AC50 [18]: 20.3 µM (active) | AC50 [19]: 0.289 µM (active) | AC50 [8]: 2.42 µM (active) | AC50 [20]: 1.19 µM (active) | AC50 [21]: 10.8 µM (active) | AC50 [11]: 24.9 µM (active) | AC50 [22]: 11 µM (active) | AC50 [23]: 5.66 µM (active) | AC50 [24]: 3.32 µM (active) | AC50 [15]: 11.5 µM (active)

COc1cccc(-c2ccc([C@@H]3[C@@H]4CN(C(=O)C5CC5)C[C@H]3N4)cc2)c1
AC50 [8]: 3.06 µM (active) | AC50 [25]: 24.1 µM (active) | AC50 [22]: 43.6 µM (active) | AC50 [15]: 39 µM (active) | AC50 [26]: 0.85 µM (active) | AC50 [27]: 34.3 µM (active) | AC50 [28]: 0.949 µM (active) | AC50 [29]: 0.634 µM (active) | AC50 [30]: 1.03 µM (active)

C[C@H](CO)N1C[C@H](C)[C@@H](CN(C)Cc2ccc(-c3ccccc3)cc2)OCc2ccccc2-c2c(n(C)c3ccccc23)C1=O
AC50 [26]: 2.06 µM (active) | AC50 [27]: 19.1 µM (active) | AC50 [28]: 2.35 µM (active) | AC50 [29]: 0.865 µM (active) | AC50 [30]: 1.46 µM (active)

CC1=C(C(=O)O)N2C(=O)[C@@H](NC(=O)[C@H](N)c3ccccc3)[C@H]2SC1 [CEPHALEXIN ANHYDROUS]
IC50 [31]: > 40 µM (inactive) | IC50 [32]: > 40 µM (inactive)

CCCCCNC(=N)N/N=C/c1c[nH]c2ccc(OC)cc12 [TEGASEROD]
IC50 [33]: 16.8 µM (inactive) | IC50 [31]: > 40 µM (inactive) | IC50 [32]: 10.9 µM (inactive)
